What was measured:
[1] = test system: doxycycline (dox)-inducible fibroblast line; experiment: Reversibility of progerin-induced nuclear changes in doxycycline-inducible fibroblast line; assay type: cell-based; settings: following re-addition of doxycycline
motor neurons (MNs) = settings: after trophic factor withdrawal (Yang et al.); cited from earlier work
iPSC-derived mDA neurons = experiment: mDA neuron marker expression (NURR1, TH) as sign of acute toxicity; assay type: cell-based, human; settings: treatment of mDA neurons
Method: Cells were fixed in 4% paraformaldehyde for 15 minutes. Blocking was performed in phosphate-buffered saline supplemented with 1% BSA, and 0.3% Triton X-100 for 30 minutes to 1 hour. Cells were stained overnight at 4° C. with primary antibodies diluted in blocking buffer. Following several washes, cells were stained with appropriate Alexa Fluor-labeled secondary antibodies (Molecular Probes, Carlsbad, Calif.) at 1:500 in blocking buffer for 30 minutes to 3 hours at room temperature. Cells were counterstained with 4′,6-diamidino-2-phenylindole (DAPI; Thermo Fisher, Rockford, Ill.) to visualize nuclei. Images were acquired with an Olympus IX81 microscope using a Hamamatsu ORCA CCD camera.
Cells were collected with a cell lifter (Corning, Tewksbury, Mass.) in ice-cold phosphate-buffered saline without calcium or magnesium (PBS−/−). Cell pellets were rapidly frozen on ethanol and dry ice and stored at −80° C. Cell pellets were thawed on ice and resuspended in 50-200 μl RIPA lysis buffer (50 mM Tris-HCl pH 8.0, 120 mM NaCl, 6 mM EDTA, 0.5% NP-40) with 1% sodium dodecyl sulfate (SDS). Cell suspensions were vortexed at 15-minute intervals during a 45-minute incubation on ice. Lysates were isolated following a 10,000 rpm spin for 10 minutes at 4° C. 20-40 μg samples were further diluted with 4× Laemmli sample buffer, boiled for 5 minutes at 95° C., and loaded onto a NuPAGE 4-12% Bis-Tris precast gel (Life Technologies). Gel electrophoresis was performed at 100 V for 2 hours. Gels were transferred to a methanol activated PVDF membrane using the XCell II Blot Module (Life Technologies) according to the manufacturer's instructions. Blots were blocked in 3% bovine serum albumin (BSA) in Tris buffered saline plus 0.1% Tween-20 (TBS-T) for 45 minutes at room temperature. […]
Following several washes with TBS-T, blots were incubated in appropriate HRP-labeled secondary antibodies (Jackson ImmunoResearch, West Grove, Pa.) for 1 hour at room temperature. […] Densitometry quantification was performed using ImageJ on blots from three independent experiments.

[2] = test system: proliferating cells in iPSC-derived mDA neuron cultures; experiment: Mitomycin C treatment of iPSC-derived mDA neuron cultures; assay type: cell-based, human; settings: 1 day following the final day 30 replating
Method: One to two days after plating, cells were treated with 1 μg/ml mitomycin C (Tocris) for 1 hour to kill any remaining proliferating contaminants. iPSC-derived mDA neurons were fed every 2 to 3 days and maintained without passaging until the desired timepoint for a given experiment. PO, laminin and fibronectin were added to the medium every 7-10 days to prevent neurons from lifting off.

Compound: C[C@H]1c2cccc(O)c2C(=O)C2=C(O)[C@]3(O)C(=O)C(C(N)=O)=C(O)[C@@H](N(C)C)[C@@H]3[C@@H](O)[C@@H]21 [doxycycline]
- time to reversal of progerin-induced changes in nuclear morphology [1]: ≤ 10 days

Compound: O=C1Cc2c([nH]c3ccc(Br)cc23)-c2ccccc2N1 [kenpaullone]
- survival of MNs (motor neurons (MNs)): impressive ability to prolong the healthy survival of MNs

Compound: N#CC(C#N)=NNc1cccc(Cl)c1 [CCCP, carbonyl cyanide 3-chlorophenylhydrazone, reference compound]
- mDA neuron marker expression after mitochondrial toxin (iPSC-derived mDA neurons): rapidly induces mDA neuron marker loss

Compound: CO[C@@]12[C@H](COC(N)=O)C3=C(C(=O)C(C)=C(N)C3=O)N1C[C@@H]1N[C@@H]12 [Mitomycin C, mitomycin C]
- post-mitotic neurons [2]: unaffected
- remaining proliferating cells [2]: helped to eliminate the remaining proliferating cells
